Where two headings read alike, the source gives them in different places.
Key:
[1] = Dynamic interfacial tension analysis (dIFT), ascending canola oil drop in aqueous surfactant solution; format: physicochemical; settings: 200 ppm surfactant, pH 8.3-8.5, canola oil
Procedure: Method—Dynamic Interfacial Tension Analysis (dIFT) Dynamic Interfacial Tension analysis was performed on a Krüss® DVT30 Drop Volume Tensiometer (Krüss USA, Charlotte, N.C.). The instrument was configured to measure the interfacial tension of an ascending oil drop in the aqueous surfactant solution. The oil used was canola oil (Crisco Pure Canola Oil manufactured by The J.M. Smucker Company). The aqueous surfactant and oil phases were temperature controlled at 21.1° C. (+/−1° C.), via a recirculating water temperature controller attached to the tensiometer. A dynamic interfacial tension curve was generated by dispensing the oil drops into the aqueous surfactant phase from an ascending capillary with an internal diameter of 0.2540 mm, over a range of flow rates and measuring the interfacial tension at each flow rate. Data is generated at oil dispensing flow rates of 500 μL/min to 1 μL/min with 2 flow rates per decade on a logarithmic scale (7 flow rates measured in this instance). Interfacial tension was measured on three oil drops per flow rate and then averaged. Interfacial tension was reported in units of mN/m. Surface age of the oil drops at each flow rate is also recorded and plots can be generated either of interfacial tension (y-axis) versus oil flow rate (x-axis) or interfacial tension (y-axis) versus oil drop surface age (x-axis). […] Example of analysis of a 200 ppm surfactant concentration, with water hardness (3:1 Ca:Mg) of 6 or 20 grains per gallon (gpg) as noted, 21.1° C., pH 8.3-8.5: Sample was analyzed as described above. Density settings for 21.1° C. were set at 0.917 g/ml for Canola Oil and 0.998 g/ml for aqueous surfactant phase (assumed to be the same as water since dilute solution). To a 100 ml volumetric flask was added 2.00 mL of 1% (wt/wt) Surfactant solution in deionized water and the volumetric is then filled to the mark with 6.12 gpg water for target 6 gpg solution or 20.408 gpg water for target 20 gpg solution, (3:1 CaCl2:MgCl2 solution) and mixed well. The solution was transferred to a beaker and the pH adjusted to 8.3-8.5 by addition of a few drops of 0.1 N NaOH or 0.1 N H2SO4. The solution is then loaded into the tensiometer measurement cell and analyzed. Total time from addition of hardness to surfactant to time loaded into tensiometer is 5 minutes. The following surfactants were analyzed via dIFT measurements. Surfactants were analyzed at a level of 200 ppm. Analysis conditions are in water of both 6 and 20 gpg Calcium/Magnesium water hardness level (3:1 calcium:magnesium), 21.1° C. and adjusted to pH 8.3-8.5.

[2] = Solubility of system at 1 wt % with hardness; format: physicochemical
Description: Stock solutions of all species were made at 1% by weight in deionized water. […] […] […] Additionally a modified LAS (MLAS) was chosen for comparison.

[3] = solution hardness 6 gpg (3:1 Calcium:Magnesium)
[4] = solution hardness 20 gpg (3:1 Calcium:Magnesium)
[5] = 1% solution by weight in deionized water
[6] = 1% solution by weight in deionized water, heated to approximately 55° C.
[7] = aliquot of 1% solution diluted to 200 ppm with 6.122 gpg water

Compound	IFT @ 1 μL/min Oil Flowrate, 21.1° C. [1, 3] [mN/m]	IFT @ 1 μL/min Oil Flowrate, 21.1° C. [1, 4] [mN/m]	Soluble at Room Temperature [2, 5]	Soluble after heating to ≈55° C. [2, 6]	Soluble after addition of 6 gpg hardness (for at least 30 minutes) [2, 7]	Soluble after addition of 6 gpg hardness (for at least 30 minutes) [2]	Soluble after heating to ≈55° C. [2]	Soluble at Room Temperature [2]
CCCCCCCCCC(C)c1ccc(S(=O)(=O)[O-])o1.[Na+] (centres unmarked) [C11 2-furan AFS, sodium 5-(undecan-2-yl)furan-2-sulfonate]	7.25	4.03	Yes	Yes	Yes			
CCCCCCCCCCC(C)c1ccc(S(=O)(=O)[O-])o1.[Na+] (centres unmarked) [C12 2-furan AFS, sodium 5-(dodecan-2-yl)furan-2-sulfonate]	1.15	0.94	Yes	Yes	Yes			
CCCCCCCCCCC(C)c1ccc(S(=O)(=O)O)cc1 (centres unmarked) [C12 2-phenyl LAS, reference compound]			No	Yes	did not remain soluble and No			
CCCCCCCCCCCCc1ccc(S(=O)(=O)[O-])o1.[Na+] [C12 1-furan AFS, sodium 5-dodecanfuran-2-sulfonate]	0.31	0.25						
sodium 5-dodecanfuran-2-sulfonate [C12 1-furan AFS]			No	Yes	Yes			
CCCCCCCCCCCCCc1ccc(S(=O)(=O)[O-])o1.[Na+] [C13 1-furan AFS, sodium 5-tridecanfuran-2-sulfonate]	0.08	0.08				Yes	Yes	No

From patent US20150150768A1, “Furan Based Composition” (Los Alamos National Security LLC, priority 2013, published 2015)
